Laboratory results from the supplement of paper PMC10307832.

What was measured:
Experiment in all cases: relative viability (nuclei count vs DMSO), 5 days (fraction); higher = more cells survive
[1] = compound: CC(C)(C)c1nc(-c2cccc(NS(=O)(=O)c3c(F)cccc3F)c2F)c(-c2ccnc(N)n2)s1 [Dabrafenib] + Nc1nc2[nH]cc(CCc3ccc(C(=O)N[C@@H](CCC(=O)O)C(=O)O)cc3)c2c(=O)[nH]1 [Pemetrexed] (partner 0.2 µM)
Outline: (§1)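 Lung cancer cell lines were seeded in 1536-well plates and dosed by pin tool the next day, with either a single drug or a fixed anchor-drug dose combined with five library-drug doses (not always all listed) spaced in √10 steps. Five days later, one step fixed the cells and stained their nuclei (final 0.05% Triton X-100, 1% formaldehyde, 1 ug/ml Hoechst), and nuclei were counted on 4× images. Relative viability is the nuclei count in treated wells divided by the count in vehicle wells, and each value is the median of duplicate plates.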

[2] = compound: NC(=O)c1ccc(N(C(N)=O)c2c(F)cccc2F)nc1-c1ccc(F)cc1F [VX-702] + CC(=O)Nc1cccc(-n2c(=O)n(C3CC3)c(=O)c3c(Nc4ccc(I)cc4F)n(C)c(=O)c(C)c32)c1 [Trametinib] (partner 0.02 µM)
Outline: as §1

[3] = compound: NC(=O)c1ccc(N(C(N)=O)c2c(F)cccc2F)nc1-c1ccc(F)cc1F [VX-702] + COc1cc2c(Oc3ccc(NC(=O)C4(C(=O)Nc5ccc(F)cc5)CC4)cc3F)ccnc2cc1OCCCN1CCOCC1 [Foretinib] (partner 0.25 µM)
Outline: as §1

[4] = compound: NC(=O)c1ccc(N(C(N)=O)c2c(F)cccc2F)nc1-c1ccc(F)cc1F [VX-702] + Nc1nc2[nH]cc(CCc3ccc(C(=O)N[C@@H](CCC(=O)O)C(=O)O)cc3)c2c(=O)[nH]1 [Pemetrexed] (partner 0.2 µM)
Outline: as §1

| Cell Line | relative viability ([1]; first compound 0.003 µM) | relative viability ([1]; first compound 0.009487 µM) | relative viability ([1]; first compound 0.03 µM) | relative viability ([1]; first compound 0.09487 µM) | relative viability ([1]; first compound 0.3 µM) | relative viability ([2]; first compound 0.02 µM) | relative viability ([2]; first compound 0.2 µM) | relative viability ([2]; first compound 0.6325 µM) | relative viability ([2]; first compound 2 µM) | relative viability ([3]; first compound 0.02 µM) | relative viability ([3]; first compound 0.2 µM) | relative viability ([3]; first compound 0.6325 µM) | relative viability ([3]; first compound 2 µM) | relative viability ([4]; first compound 0.02 µM) | relative viability ([4]; first compound 0.2 µM) | relative viability ([4]; first compound 0.6325 µM) | relative viability ([4]; first compound 2 µM) |
| --- | --- | --- | --- | --- | --- | --- | --- | --- | --- | --- | --- | --- | --- | --- | --- | --- | --- |
| 201T | 0.332 | 0.352 | 0.332 | 0.307 | 0.287 | 0.733 | 0.756 | 0.744 | 0.774 | 0.943 | 0.987 | 1.05 | 1.07 | 0.36 | 0.331 | 0.339 | 0.34 |
| A549 |  |  |  |  |  |  |  |  |  | 1.02 | 0.975 | 0.92 | 1.07 |  |  |  |  |
| A-427 | 0.891 | 1.04 | 0.828 | 0.803 | 0.987 | 0.752 | 0.707 | 0.687 | 0.724 | 1.06 | 1.03 | 0.97 | 1.08 | 1.06 | 0.993 | 0.986 | 1.06 |
| ABC-1 |  |  |  |  |  |  |  |  |  | 1.24 | 0.968 | 0.859 | 1.33 |  |  |  |  |
| BEN |  | 0.764 |  | 0.846 | 0.908 | 1.1 | 0.907 | 1.03 | 1.07 | 0.73 | 0.556 | 0.57 | 0.876 | 0.825 | 0.689 | 0.623 | 0.86 |
| CAL-12T | 1.21 | 1.44 | 1.18 | 1.08 | 1.14 | 0.368 | 0.371 | 0.321 | 0.329 | 1.05 | 1.09 | 1.01 | 1.28 | 0.982 | 1.22 | 1.14 | 1.29 |
| COR-L23 | 0.18 | 0.213 | 0.193 | 0.209 | 0.196 | 0.715 | 0.602 | 0.686 | 0.69 | 1.04 | 1 | 0.995 | 1.38 | 0.203 | 0.183 | 0.21 | 0.23 |
| COR-L 105 | 1 | 1.2 | 0.799 | 1.19 | 1.29 | 0.472 | 0.437 | 0.395 | 0.42 | 1.02 | 0.838 | 1.14 | 1.3 | 1.06 | 1 | 1.14 | 1.25 |
| Calu-6 |  |  |  |  |  |  |  |  |  | 0.975 | 0.902 | 0.896 | 0.971 |  |  |  |  |
| ChaGo-K-1 | 0.219 | 0.256 | 0.263 | 0.246 | 0.26 | 0.948 | 0.903 | 0.859 | 0.844 | 0.867 | 0.892 | 0.893 | 0.901 | 0.249 | 0.257 | 0.269 | 0.26 |
| EBC-1 |  |  |  |  |  |  |  |  |  | 0.107 | 0.111 | 0.0889 | 0.0899 |  |  |  |  |
| EKVX |  | 0.484 | 0.419 | 0.408 | 0.395 | 0.241 | 0.291 | 0.307 | 0.281 | 0.754 | 0.432 | 0.49 | 0.685 | 0.463 | 0.345 | 0.38 | 0.431 |
